We go through eight compounds from patent US10722442B2, “Skin brightening composition comprising novel ginsenoside” (AMOREPACIFIC CORPORATION, priority 2018, dated 2020).

Each structure is given as a SMILES string.

The target of assay [1] is Mushroom-derived tyrosinase. Nature of the assay: Inhibitory effect of tyrosinase activity. The assay is classed as biochemical. As to conditions: L-tyrosine substrate, 20 minutes at 37° C., absorbance at 490 nm. On the procedure: In order to compare the skin brightening effects of ginsenosides isolated from the ginseng seed extract, the inhibitory effect of the tyrosinase activity was evaluated as follows. Mushroom-derived tyrosinase and tyrosine were obtained from Sigma Chemical. […] Tyrosinase activity was assessed by measuring the absorbance at 490 nm using a microplate reader (Bio-Rad 3550, Richmond, Calif., U.S.A.) after an enzyme reaction for 20 minutes at 37° C.

For another assay, the system named is Mel-Ab cell line. Nature of the assay: Melanin production inhibition (Dooley's method). As to conditions: Mel-Ab cells, after 5 days, absorbance at 400 nm. The assay is classed as cell-based, C57BL/6.

With `OC[C@H]1O[C@@H](Oc2ccc(O)cc2)[C@H](O)[C@@H](O)[C@@H]1O` [Arbutin, arbutin], the “IC50 (ppm), inhibitory effect of tyrosinase activity” value (shortened to “IC50 (ppm), inhibitory effect”) in assay [1] is given as 149 ppm.
On to `CC(C)=CCC[C@](C)(O[C@@H]1O[C@H](CO)[C@@H](O)[C@H](O)[C@H]1O)[C@H]1CC[C@]2(C)[C@@H]1[C@H](O)C[C@@H]1[C@@]3(C)CC[C@H](O)C(C)(C)[C@@H]3[C@@H](O[C@@H]3O[C@H](CO)[C@@H](O)[C@H](O)[C@H]3O)C[C@]12C` [GS#01, ginsenoside Rg1], for which the “IC50 (ppm), concentration required to reduce melanin production in melanocytes by half” value in the assay on Mel-Ab cell line was found to be 37 ppm. Moreover, the “IC50 (ppm), inhibitory effect” value in assay [1] was found to be 23 ppm.
On to `CC(C)=CCC[C@](C)(O)[C@H]1CC[C@]2(C)[C@@H]1[C@H](O)C[C@@H]1[C@@]3(C)CC[C@H](O)C(C)(C)[C@@H]3[C@@H](O[C@@H]3O[C@H](CO)[C@@H](O)[C@H](O)[C@H]3O[C@@H]3O[C@@H](C)[C@H](O)[C@@H](O)[C@H]3O)C[C@]12C` [GS#02, ginsenoside Rg2], for which the “IC50 (ppm), concentration required to reduce melanin production in melanocytes by half” value with Mel-Ab cell line is on record as 35 ppm. The “IC50 (ppm), inhibitory effect” value in assay [1] turned out to be 30 ppm.
In the case of `CC(C)=CCC[C@](C)(O[C@@H]1O[C@H](CO)[C@@H](O)[C@H](O)[C@H]1O)[C@H]1CC[C@]2(C)[C@@H]1[C@H](O)C[C@@H]1[C@@]3(C)CC[C@H](O)C(C)(C)[C@@H]3[C@@H](O[C@@H]3O[C@H](CO)[C@@H](O)[C@H](O)[C@H]3O[C@@H]3O[C@@H](C)[C@H](O)[C@@H](O)[C@H]3O)C[C@]12C` [GS#03, ginsenoside Re], the “IC50 (ppm), concentration required to reduce melanin production in melanocytes by half” value with Mel-Ab cell line is 39 ppm. Also, the “IC50 (ppm), inhibitory effect” value in assay [1] worked out at 27 ppm.
Taken in the same sequence, the figures for `CC(C)=CCC[C@](C)(O[C@@H]1O[C@H](CO)[C@@H](O)[C@H](O)[C@H]1O)[C@H]1CC[C@]2(C)[C@@H]1[C@H](O)C[C@@H]1[C@@]3(C)CC[C@H](O[C@@H]4O[C@H](CO)[C@@H](O)[C@H](O)[C@H]4O[C@@H]4O[C@H](CO)[C@@H](O)[C@H](O)[C@H]4O)C(C)(C)[C@@H]3CC[C@]12C` [GS#04, ginsenoside Rd] were 38 ppm and 31 ppm.
The corresponding values for `CC(C)=CCC[C@](C)(O[C@@H]1O[C@H](CO[C@@H]2O[C@H](CO)[C@@H](O)[C@H](O)[C@H]2O)[C@@H](O)[C@H](O)[C@H]1O)[C@H]1CC[C@]2(C)[C@@H]1[C@H](O)C[C@@H]1[C@@]3(C)CC[C@H](O[C@@H]4O[C@H](CO)[C@@H](O)[C@H](O)[C@H]4O[C@@H]4O[C@H](CO)[C@@H](O)[C@H](O)[C@H]4O)C(C)(C)[C@@H]3CC[C@]12C` [GS#05, ginsenoside Rb1] are 57 ppm and 47 ppm.
Taken in the same sequence, the figures for `CC(C)=CCC[C@](C)(O[C@@H]1O[C@H](CO[C@@H]2OC[C@H](O)[C@H](O)[C@H]2O)[C@@H](O)[C@H](O)[C@H]1O)[C@H]1CC[C@]2(C)[C@@H]1[C@H](O)C[C@@H]1[C@@]3(C)CC[C@H](O[C@@H]4O[C@H](CO)[C@@H](O)[C@H](O)[C@H]4O[C@@H]4O[C@H](CO)[C@@H](O)[C@H](O)[C@H]4O)C(C)(C)[C@@H]3CC[C@]12C` [GS#06, ginsenoside Rb2] were 54 ppm and 53 ppm.
`O=c1cc(CO)occ1O` [Kojic acid, kojic acid]: in the assay on Mel-Ab cell line, the “IC50 (ppm), concentration required to reduce melanin production in melanocytes by half” value is on record as 39 ppm.
